Results taken from patent US20230025976A1, “PRMT5 Inhibitor for Use In A Method of Treating Psoriasis and Other Autoimmune Conditions” (Pfizer Inc., priority 2020, published 2023).

Test system: psoriasis patient
Experiment: Treatment of a psoriasis patient (case report, Example 1)
Format: in vivo, human
Conditions: for Psoriasis symptoms, skin, front of torso / Psoriasis symptoms, skin, back of torso: psoriasis patient
Procedure: They had chronic psoriatic lesions on the front and back sides of their torso. The lesions covered 75% of their body, and the patient had difficulty controlling these symptoms despite having used several different medications in the past. The psoriasis symptoms worsened after chemotherapy. The patient was treated with 1 mg of (1S,2S,3S,5R)-3-((6-(difluoromethyl)-5-fluoro-1,2,3,4-tetrahydroisoquinolin-8-yl) oxy)-5-(4-methyl-7H-pyrrolo[2,3-d]pyrimidin-7-yl)cyclopentane-1,2-diol orally twice a day, for four months. During the treatment period the patient was questioned about other medical conditions, if any, they were then experiencing. […] The patient discontinued treatment after four months, for reasons unrelated to their psoriasis. […] Photos taken after two and six weeks of treatment document the clearing of psoriasis symptoms. FIGS. 1 and 2 depict said clearing of psoriasis symptoms.

What does the source list for `Cc1ncnc2c1ccn2[C@@H]1C[C@H](Oc2cc(C(F)F)c(F)c3c2CNCC3)[C@@H](O)[C@H]1O` [(1S,2S,3S,5R)-3-((6-(difluoromethyl)-5-fluoro-1,2,3,4-tetrahydroisoquinolin-8-yl)oxy)-5-(4-methyl-7H-pyrrolo [2,3-d]pyrimidin-7-yl)cyclopentane-1,2-diol]?
Psoriatic skin lesions after cessation of treatment (1 mg orally twice a day for four months, one month after cessation of treatment): remained in remission; Psoriatic skin lesions (person, severe psoriasis, 1 mg orally twice a day, following six weeks treatment): significant clearing; Psoriatic skin lesions and related itching, patient-reported (person, severe psoriasis, 1 mg orally twice a day, within one week of initiating treatment): improvement in their psoriatic skin lesions and a lessening of related itching; Psoriasis symptoms, skin, front of torso (1 mg twice daily for six weeks, FIG. 1B): mild; Psoriasis symptoms, skin, back of torso (1 mg twice daily for six weeks, FIG. 2B): mild; Psoriasis symptoms, skin, front of torso (1 mg twice daily for two weeks, FIG. 1A): moderate; Psoriasis symptoms, skin, back of torso (1 mg twice daily for two weeks, FIG. 2A): moderate
